Key:
Test in all cases: KINOMEscan
Type in all cases: binding
Conditions in all cases: 2000 nM
[1] = molecular target: T1, ADCK4 (Homo sapiens, UniProt Q96D53)
T1 construct: purchased DiscoveRx (KINOMEscan scanMAX panel, service)

[2] = molecular target: T2, ALK (Homo sapiens, UniProt Q9UM73)
T2 construct: purchased DiscoveRx (KINOMEscan scanMAX panel, service)

[3] = molecular target: T3, BMX (Homo sapiens, UniProt P51813)
T3 construct: DNA label (for qPCR read-out); purchased KINOMEscan scanMAX panel (DiscoveRx)

[4] = molecular target: T4, BUB1 (Homo sapiens, UniProt O43683)
T4 construct: DNA label (for qPCR read-out); purchased KINOMEscan scanMAX panel (DiscoveRx)

[5] = molecular target: T5, CAMK1D (Homo sapiens, UniProt Q8IU85)
T5 construct: DNA label (qPCR read-out); purchased KINOMEscan (ScanMAX panel service)

[6] = molecular target: T6, CAMK1G (Homo sapiens, UniProt Q96NX5)
T6 construct: DNA label (qPCR read-out); purchased KINOMEscan (ScanMAX panel service)

[7] = molecular target: T7, CDK11 (CDK19) (Homo sapiens, UniProt Q9BWU1)
T7 construct: purchased DiscoverX (KINOMEscan service)

[8] = molecular target: T8, CDK2 (Homo sapiens, UniProt P24941)
T8 construct: purchased DiscoverX (KINOMEscan service)

[9] = molecular target: T9, CDK5 (Homo sapiens, UniProt Q00535)
T9 construct: purchased DiscoverX (KINOMEscan service)

[10] = molecular target: T10, CSNK1E (Homo sapiens, UniProt P49674)
T10 construct: DNA label (qPCR read-out); purchased DiscoverX (assay service)

[11] = molecular target: T11, CSNK1G2 (Homo sapiens, UniProt P78368)
T11 construct: DNA label; purchased DiscoveRx (KINOMEscan scanMAX panel)

[12] = molecular target: T12, DAPK2 (Homo sapiens, UniProt Q9UIK4)
T12 construct: DNA label; purchased DiscoveRx (KINOMEscan scanMAX panel)

[13] = molecular target: T13, DDR2 (Homo sapiens, UniProt Q16832)
T13 construct: DNA label (qPCR read-out); purchased KINOMEscan (DiscoveRx) panel

[14] = molecular target: T14, EPHA2 (Homo sapiens, UniProt P29317)
T14 construct: purchased DiscoveRx (KINOMEscan scanMAX panel)

[15] = molecular target: T15, EPHB3 (Homo sapiens, UniProt P54753)
T15 construct: purchased DiscoveRx (KINOMEscan scanMAX panel)

[16] = molecular target: T16, ERK2 (Homo sapiens, UniProt P28482)
T16 construct: DNA label (qPCR read-out); purchased DiscoveRx (KINOMEscan ScanMAX panel)

[17] = molecular target: T17, ERK5 (Homo sapiens, UniProt Q13164)
T17 construct: DNA label (qPCR read-out); purchased DiscoveRx (KINOMEscan ScanMAX panel)

[18] = molecular target: T18, FER (Homo sapiens, UniProt P16591)
T18 construct: DNA label (qPCR read-out); purchased DiscoveRx (KINOMEscan ScanMAX panel)

[19] = molecular target: T19, GRK2 (Homo sapiens, UniProt P25098)
T19 construct: DNA label (for qPCR read-out); purchased DiscoveRx (KINOMEscan scanMAX panel, contract assay)

[20] = molecular target: T20, HPK1 (Homo sapiens, UniProt Q92918)
T20 construct: DNA label (for qPCR read-out); purchased DiscoveRx (KINOMEscan scanMAX panel, contract assay)

[21] = molecular target: T21, KIT(V559D) (Homo sapiens, UniProt P10721, V559D)
T21 construct: DNA label (for qPCR read-out); purchased DiscoveRx (KINOMEscan scanMAX panel)

[22] = molecular target: MAP4K4 (Homo sapiens, UniProt O95819)
[23] = molecular target: MARK2 (Homo sapiens, UniProt Q7KZI7)
[24] = molecular target: T22, MAST1 (Homo sapiens, UniProt Q9Y2H9)
T22 construct: purchased DiscoveRx (KINOMEscan scanMAX panel, service)

[25] = molecular target: T23, MYLK2 (Homo sapiens, UniProt Q9H1R3)
T23 construct: DNA label (for qPCR read-out); purchased KINOMEscan scanMAX panel (DiscoveRx)

[26] = molecular target: T24, NIK (Homo sapiens, UniProt Q99558)
T24 construct: DNA label (qPCR read-out); purchased KINOMEscan (ScanMAX panel service)

[27] = molecular target: T25, p38-beta (Homo sapiens, UniProt Q15759)
T25 construct: purchased DiscoverX (KINOMEscan service)

[28] = molecular target: T26, PAK3 (Homo sapiens, UniProt O75914)
T26 construct: purchased DiscoverX (KINOMEscan service)

[29] = molecular target: T27, PCTK2 (Homo sapiens, UniProt Q00537)
T27 construct: purchased DiscoverX (KINOMEscan service)

[30] = molecular target: T28, PCTK3 (Homo sapiens, UniProt Q07002)
T28 construct: DNA label (for qPCR read-out); purchased DiscoveRx (KINOMEscan scanMAX service)

[31] = molecular target: T29, PIK3CA(M1043I) (Homo sapiens, UniProt P42336, M1043I)
T29 construct: DNA label; purchased DiscoveRx (KINOMEscan scanMAX panel)

[32] = molecular target: T30, RIPK2 (Homo sapiens, UniProt O43353)
T30 construct: DNA label (qPCR read-out); purchased DiscoveRx (KINOMEscan ScanMAX panel)

[33] = molecular target: T31, TGFBR2 (Homo sapiens, UniProt P37173)
T31 construct: DNA label (qPCR read-out); purchased KINOMEscan (DiscoveRx) ScanMAX panel

[34] = molecular target: T32, TNK1 (Homo sapiens, UniProt Q13470)
T32 construct: DNA label (qPCR read-out); purchased KINOMEscan (DiscoveRx) ScanMAX panel

[35] = molecular target: T33, TRKC (Homo sapiens, UniProt Q16288)
T33 construct: DNA label (qPCR read-out); purchased KINOMEscan (DiscoveRx) ScanMAX panel

[36] = molecular target: T34, VRK2 (Homo sapiens, UniProt Q86Y07)
T34 construct: purchased KINOMEscan (DiscoveRx) panel service

T14 sequence (P29317 24-976): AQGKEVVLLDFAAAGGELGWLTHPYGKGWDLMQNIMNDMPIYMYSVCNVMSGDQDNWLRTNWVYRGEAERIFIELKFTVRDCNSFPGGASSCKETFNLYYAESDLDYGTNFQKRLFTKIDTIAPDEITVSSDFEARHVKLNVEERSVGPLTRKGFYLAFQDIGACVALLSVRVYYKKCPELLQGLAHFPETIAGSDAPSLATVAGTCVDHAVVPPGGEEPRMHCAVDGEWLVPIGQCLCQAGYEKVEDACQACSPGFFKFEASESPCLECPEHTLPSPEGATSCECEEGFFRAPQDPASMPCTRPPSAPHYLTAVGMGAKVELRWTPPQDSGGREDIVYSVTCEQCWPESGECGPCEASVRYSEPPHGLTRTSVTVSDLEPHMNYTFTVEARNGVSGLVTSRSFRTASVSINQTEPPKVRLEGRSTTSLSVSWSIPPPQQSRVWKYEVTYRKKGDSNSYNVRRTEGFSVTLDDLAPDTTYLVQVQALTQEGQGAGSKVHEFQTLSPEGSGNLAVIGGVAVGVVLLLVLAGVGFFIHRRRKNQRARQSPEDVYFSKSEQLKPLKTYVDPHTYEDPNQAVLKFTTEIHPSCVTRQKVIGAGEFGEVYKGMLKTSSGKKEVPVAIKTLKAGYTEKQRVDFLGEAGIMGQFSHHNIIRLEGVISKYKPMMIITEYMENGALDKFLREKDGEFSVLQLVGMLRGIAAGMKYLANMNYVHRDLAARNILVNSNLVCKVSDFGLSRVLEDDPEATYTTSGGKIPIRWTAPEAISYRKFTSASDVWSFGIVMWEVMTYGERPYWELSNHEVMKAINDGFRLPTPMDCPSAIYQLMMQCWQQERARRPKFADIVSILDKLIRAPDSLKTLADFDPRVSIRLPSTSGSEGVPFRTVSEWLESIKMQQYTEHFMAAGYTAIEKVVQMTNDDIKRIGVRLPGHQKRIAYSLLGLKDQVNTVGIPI
T25 sequence (Q15759 whole entry): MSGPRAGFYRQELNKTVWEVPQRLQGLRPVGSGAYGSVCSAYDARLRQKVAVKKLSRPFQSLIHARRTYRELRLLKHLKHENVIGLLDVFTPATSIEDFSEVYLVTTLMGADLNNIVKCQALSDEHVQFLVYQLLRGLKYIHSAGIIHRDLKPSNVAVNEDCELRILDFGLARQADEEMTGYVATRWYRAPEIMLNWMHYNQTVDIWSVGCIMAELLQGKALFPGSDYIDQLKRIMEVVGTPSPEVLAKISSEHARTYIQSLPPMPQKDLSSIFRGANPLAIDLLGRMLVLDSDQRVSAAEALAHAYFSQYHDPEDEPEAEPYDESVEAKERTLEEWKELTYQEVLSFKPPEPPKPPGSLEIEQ
T15 sequence (P54753 34-998): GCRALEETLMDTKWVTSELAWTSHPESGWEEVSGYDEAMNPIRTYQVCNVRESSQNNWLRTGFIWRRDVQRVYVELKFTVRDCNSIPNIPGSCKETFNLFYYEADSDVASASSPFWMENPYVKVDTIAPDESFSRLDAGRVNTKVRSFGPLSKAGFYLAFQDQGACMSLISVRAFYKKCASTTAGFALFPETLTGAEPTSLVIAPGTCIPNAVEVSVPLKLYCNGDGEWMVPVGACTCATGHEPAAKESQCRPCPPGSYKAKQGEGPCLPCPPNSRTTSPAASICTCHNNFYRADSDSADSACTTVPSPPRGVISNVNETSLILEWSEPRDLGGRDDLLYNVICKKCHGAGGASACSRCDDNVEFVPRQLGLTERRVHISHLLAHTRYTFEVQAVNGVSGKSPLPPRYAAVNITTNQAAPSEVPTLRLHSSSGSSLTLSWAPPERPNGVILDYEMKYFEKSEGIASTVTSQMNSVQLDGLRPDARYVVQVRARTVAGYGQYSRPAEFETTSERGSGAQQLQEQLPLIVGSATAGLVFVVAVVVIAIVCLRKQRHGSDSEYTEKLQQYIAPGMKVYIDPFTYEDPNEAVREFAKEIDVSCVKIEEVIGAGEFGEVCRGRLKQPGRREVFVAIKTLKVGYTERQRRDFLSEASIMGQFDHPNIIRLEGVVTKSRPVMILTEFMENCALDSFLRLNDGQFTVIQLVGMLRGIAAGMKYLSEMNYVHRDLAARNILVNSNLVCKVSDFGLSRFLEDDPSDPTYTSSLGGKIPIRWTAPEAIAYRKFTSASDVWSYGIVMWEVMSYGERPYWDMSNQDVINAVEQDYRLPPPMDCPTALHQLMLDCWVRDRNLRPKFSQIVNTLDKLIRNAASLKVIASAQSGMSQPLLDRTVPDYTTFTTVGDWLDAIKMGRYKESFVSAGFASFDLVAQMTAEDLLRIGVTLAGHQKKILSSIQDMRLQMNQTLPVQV
T7 sequence (Q9BWU1 whole entry): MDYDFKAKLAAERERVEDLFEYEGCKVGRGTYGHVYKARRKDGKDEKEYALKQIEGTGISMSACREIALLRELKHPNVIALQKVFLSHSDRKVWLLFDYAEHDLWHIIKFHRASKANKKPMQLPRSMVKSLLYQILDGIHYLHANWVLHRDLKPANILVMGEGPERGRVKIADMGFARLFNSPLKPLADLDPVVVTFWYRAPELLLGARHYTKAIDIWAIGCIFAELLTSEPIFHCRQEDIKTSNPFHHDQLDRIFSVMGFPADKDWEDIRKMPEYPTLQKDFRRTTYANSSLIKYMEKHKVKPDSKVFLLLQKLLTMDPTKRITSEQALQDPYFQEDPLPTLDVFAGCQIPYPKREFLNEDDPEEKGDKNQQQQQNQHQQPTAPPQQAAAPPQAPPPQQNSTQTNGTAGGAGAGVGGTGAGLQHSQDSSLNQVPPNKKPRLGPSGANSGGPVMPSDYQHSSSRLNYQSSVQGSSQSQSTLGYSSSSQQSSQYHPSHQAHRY
T12 sequence (Q9UIK4 whole entry): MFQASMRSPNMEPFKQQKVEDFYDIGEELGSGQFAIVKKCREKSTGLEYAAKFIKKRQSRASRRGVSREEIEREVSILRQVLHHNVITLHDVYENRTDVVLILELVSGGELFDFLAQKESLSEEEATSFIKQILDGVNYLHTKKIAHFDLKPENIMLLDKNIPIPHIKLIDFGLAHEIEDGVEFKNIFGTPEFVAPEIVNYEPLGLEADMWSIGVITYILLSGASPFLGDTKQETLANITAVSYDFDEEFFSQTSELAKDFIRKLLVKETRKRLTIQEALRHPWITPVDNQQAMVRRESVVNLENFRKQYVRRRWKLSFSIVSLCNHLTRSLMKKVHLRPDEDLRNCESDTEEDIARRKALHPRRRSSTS
T29 sequence (P42336 whole entry M1043I): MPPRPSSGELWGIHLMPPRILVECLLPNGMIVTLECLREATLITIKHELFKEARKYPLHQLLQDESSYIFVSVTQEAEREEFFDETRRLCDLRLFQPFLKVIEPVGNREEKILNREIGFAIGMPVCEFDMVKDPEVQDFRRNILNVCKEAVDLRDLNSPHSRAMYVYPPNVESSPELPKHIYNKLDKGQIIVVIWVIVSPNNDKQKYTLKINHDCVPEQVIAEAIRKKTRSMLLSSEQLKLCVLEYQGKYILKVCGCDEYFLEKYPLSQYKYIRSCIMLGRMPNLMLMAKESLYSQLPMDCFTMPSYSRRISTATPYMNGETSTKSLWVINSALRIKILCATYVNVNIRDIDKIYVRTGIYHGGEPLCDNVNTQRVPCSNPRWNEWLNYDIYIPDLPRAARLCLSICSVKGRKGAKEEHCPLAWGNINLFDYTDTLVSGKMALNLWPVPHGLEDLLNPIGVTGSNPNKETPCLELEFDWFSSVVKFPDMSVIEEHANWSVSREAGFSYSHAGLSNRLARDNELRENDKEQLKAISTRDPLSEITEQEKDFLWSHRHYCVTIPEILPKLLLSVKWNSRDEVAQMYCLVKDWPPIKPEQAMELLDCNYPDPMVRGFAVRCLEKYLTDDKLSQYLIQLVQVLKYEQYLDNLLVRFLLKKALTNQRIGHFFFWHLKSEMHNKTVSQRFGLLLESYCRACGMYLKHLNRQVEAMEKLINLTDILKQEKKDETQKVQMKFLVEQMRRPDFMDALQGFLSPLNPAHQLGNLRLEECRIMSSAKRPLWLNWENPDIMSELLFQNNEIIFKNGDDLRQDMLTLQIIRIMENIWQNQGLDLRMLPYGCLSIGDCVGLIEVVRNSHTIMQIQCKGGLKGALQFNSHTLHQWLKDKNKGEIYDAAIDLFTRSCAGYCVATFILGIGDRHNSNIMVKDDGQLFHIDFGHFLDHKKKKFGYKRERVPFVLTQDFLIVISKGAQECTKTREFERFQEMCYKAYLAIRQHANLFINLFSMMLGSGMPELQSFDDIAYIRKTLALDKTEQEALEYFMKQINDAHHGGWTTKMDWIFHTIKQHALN
T27 sequence (Q00537 whole entry): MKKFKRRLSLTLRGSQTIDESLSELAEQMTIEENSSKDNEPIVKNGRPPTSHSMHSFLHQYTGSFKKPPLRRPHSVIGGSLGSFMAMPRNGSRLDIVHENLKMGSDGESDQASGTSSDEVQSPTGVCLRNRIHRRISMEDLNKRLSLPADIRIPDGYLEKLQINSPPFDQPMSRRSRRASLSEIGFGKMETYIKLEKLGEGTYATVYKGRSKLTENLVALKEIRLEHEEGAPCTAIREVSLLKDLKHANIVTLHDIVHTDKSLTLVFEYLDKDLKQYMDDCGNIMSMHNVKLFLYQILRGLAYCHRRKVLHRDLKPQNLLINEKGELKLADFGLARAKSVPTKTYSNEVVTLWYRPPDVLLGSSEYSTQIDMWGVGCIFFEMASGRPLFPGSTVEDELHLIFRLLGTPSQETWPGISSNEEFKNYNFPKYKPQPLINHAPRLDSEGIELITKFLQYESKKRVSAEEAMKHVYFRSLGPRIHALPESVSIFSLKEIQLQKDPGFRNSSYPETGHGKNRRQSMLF
T9 sequence (Q00535 whole entry): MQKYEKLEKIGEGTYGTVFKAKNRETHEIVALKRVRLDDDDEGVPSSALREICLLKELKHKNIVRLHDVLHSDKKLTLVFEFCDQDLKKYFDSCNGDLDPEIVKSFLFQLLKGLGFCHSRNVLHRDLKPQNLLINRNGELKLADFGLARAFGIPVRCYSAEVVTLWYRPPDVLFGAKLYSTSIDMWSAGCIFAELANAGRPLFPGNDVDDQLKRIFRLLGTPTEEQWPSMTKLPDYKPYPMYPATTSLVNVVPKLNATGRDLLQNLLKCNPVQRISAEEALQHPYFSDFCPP

| Structure (SMILES) | % Ctrl [1] [% Ctrl] | % Ctrl [2] [% Ctrl] | % Ctrl [3] [% Ctrl] | % Ctrl [4] [% Ctrl] | % Ctrl [5] [% Ctrl] | % Ctrl [6] [% Ctrl] | % Ctrl [7] [% Ctrl] | % Ctrl [8] [% Ctrl] | % Ctrl [9] [% Ctrl] | % Ctrl [10] [% Ctrl] | % Ctrl [11] [% Ctrl] | % Ctrl [12] [% Ctrl] | % Ctrl [13] [% Ctrl] | % Ctrl [14] [% Ctrl] | % Ctrl [15] [% Ctrl] | % Ctrl [16] [% Ctrl] | % Ctrl [17] [% Ctrl] | % Ctrl [18] [% Ctrl] | % Ctrl [19] [% Ctrl] | % Ctrl [20] [% Ctrl] | other results |
| --- | --- | --- | --- | --- | --- | --- | --- | --- | --- | --- | --- | --- | --- | --- | --- | --- | --- | --- | --- | --- | --- |
| [2H]C([2H])([2H])N(C(=O)c1ccc(N2CCCN(c3ccnc4sc(C(N)=O)c(N)c34)CC2)cc1)C([2H])([2H])[2H] [15u_D6, 3-amino-4-(4-(4-(bis(methyl-d3)carbamoyl)phenyl)-1,4-diazepan-1-yl)thieno[2,3-b]pyridine-2-carboxamide] | 83 | 78 | 100 | 80 | 93 | 99 | 0 | 99 | 94 | 12 | 69 | 85 | 52 | 100 | 94 | 92 | 98 | 100 | 70 | 100 | % Ctrl [21]: 91 % Ctrl; % Ctrl [22]: 93 % Ctrl; % Ctrl [23]: 96 % Ctrl; % Ctrl [24]: 92 % Ctrl; % Ctrl [25]: 100 % Ctrl; % Ctrl [26]: 97 % Ctrl; % Ctrl [27]: 97 % Ctrl; % Ctrl [28]: 40 % Ctrl; % Ctrl [29]: 100 % Ctrl; % Ctrl [30]: 100 % Ctrl; % Ctrl [31]: 95 % Ctrl; % Ctrl [32]: 93 % Ctrl; % Ctrl [33]: 100 % Ctrl; % Ctrl [34]: 100 % Ctrl; % Ctrl [35]: 85 % Ctrl; % Ctrl [36]: 56 % Ctrl |
| CN(C)C(=O)c1ccc(N2CCCN(c3ccnc4sc(C(N)=O)c(N)c34)CC2)cc1 [15u, 3-amino-4-(4-(4-(dimethylcarbamoyl)phenyl)-1,4-diazepan-1-yl)thieno[2,3-b]pyridine-2-carboxamide] | 95 | 81 | 93 | 88 | 87 | 99 | 13 | 100 | 84 | 25 | 77 | 75 | 80 | 95 | 96 | 78 | 59 | 99 | 88 | 98 | % Ctrl [21]: 98 % Ctrl; % Ctrl [22]: 100 % Ctrl; % Ctrl [23]: 100 % Ctrl; % Ctrl [24]: 92 % Ctrl; % Ctrl [25]: 100 % Ctrl; % Ctrl [26]: 100 % Ctrl; % Ctrl [27]: 100 % Ctrl; % Ctrl [28]: 80 % Ctrl; % Ctrl [29]: 62 % Ctrl; % Ctrl [30]: 100 % Ctrl; % Ctrl [31]: 96 % Ctrl; % Ctrl [32]: 100 % Ctrl; % Ctrl [33]: 100 % Ctrl; % Ctrl [34]: 100 % Ctrl; % Ctrl [35]: 91 % Ctrl; % Ctrl [36]: 84 % Ctrl |

From patent US11572369B2, “Bicyclic pyridine compositions and methods of using the same for cancer therapy” (UNIVERSITY OF SOUTH CAROLINA, priority 2019, dated 2023)
